The source of these data is US8193175B2, “Ruthenium complexes for treating cancers” (Universite de Strasbourg, priority 2004, dated 2012).

The subject of test [1] is RDM4 line. The test is described as follows: Proliferation test (UptiBlue) on RDM4 line. It is filed as cell-based, mouse. The note with it: 72 hours. As for the experimental part:
(§1) The products are tested on different cell lines. The cells used are RDM4 from a murine T lymphoma and a MOLT-4 line originating from an acute lymphoblastic leukemia. These cancer lines both express the p53 protein, unlike the HL-60 cells from a human promyelocytary leukemia where, following deletion of its gene, p53 is absent.
(§2) All of these cells are cultivated in RPMI 1640-Glutamax, supplemented by 10% calf foetal serum heat inactivated at 56° C. for 30 minutes, 1 mM sodium pyruvate, 1 mM non-essential amino acids and 50 μg/mL gentamycine (Life Technologies, Cergy Pontoise, France). The cultures are kept in an incubator at 37° C. with a moisture saturated atmosphere, with 5% CO2.
(§3) This test uses the UptiBlue reagent (Interchim, Montluçon, France), metabolised by the living cells. The cells are incubated on plates with 96 wells with 10^4 cells/well (200 μL) with the product and cultivated for 72 hours. Then, 20 μL UptiBlue are added to each well. After 3 hours incubation, the fluorescence of the samples contained in the plates is measured at 590 nm (excitation at 560 nm), using a Fluorolite 1000 microplate reader (Dynex technologies, Issy-Les-Moulineaux, France).
The potential anti-cancers are first of all selected on the RDM4 line. The effect of the different organo-ruthenium compounds upon the cell viability is firstly determined by a proliferation test as a function of the product concentration. The activity of the compounds derived from Ru is compared to that of cisplatinum. The exposure of the RDM4 cells to these derivatives is translated by a dose-dependent reduction in their proliferation. Therefore, the effect is dependent upon the organic complex which surrounds the Ru nucleus. The inhibition concentration of the growth of 50% of the cells (IC50) is determined for each of the products. […] The ruthenium derivatives showing an excessive IC50 (>50 μM) were eliminated from the biological study.

Test [2] concerns A172, HS683, N2A, and SH5Y. The test is described as follows: MTT test on glioblastoma and neuroblastoma lines. In kind it is cell-based, human. The note with it: 48 hrs treatment; compared with cisplatinum. On the procedure: FIG. 1: The A172 cells were cultivated on plates with 96 wells in DMEM medium with 10% calf serum. At 30% confluence, the cells were treated for 48 hrs with cisplatinum or the various compounds derived from ruthenium in the concentrations indicated (1, 5, 15, 50 μM). The quantity of cells present in the wells was evaluated by an MTT (MTT, Sigma) test of which the products of the reaction are quantified with an Elisa plate reader (Metertech, USA) (490-650 nm). The results obtained were related to the values of the control condition (100% viability). The graphs show an average of 8 points with the typical spacings over one experiment representative of 4 carried out. The thick black line indicates the IC50 for each graph.
TABLE 2: a summary of the results obtained on various cell lines and primary glial cultures. The experiments were carried out under the same conditions as those described for the A172 cells. Each IC50 is an indicative value obtained over 4 independent experiments.
(§4) The first step towards characterising the anticancerous effects of the compounds derived from ruthenium consists of testing their activity on tumoral lines kept in culture and comparing these effects on lines which have different characteristics as regards resistance to the anticancer treatments. Two lines of human glioblastomas (A172, HS683) and two lines of neuroblastomas (N2A and SH5Y) were used in order to test the cytostatic effects of the compounds according to the invention. Cisplatinum was chosen as the cytotoxic comparison agent. In a first approach, an MTT test was used to measure the activity of a mitochondrial enzyme, and this gives an estimate of the number of cells. Then, the cytotoxic effects of the compounds according to the invention were characterised in greater detail by analysing the morphology of the nucleus and the activation of caspase 3—two markers of cell apoptosis.
Background: Tetrazolium dyes change colour on reduction, which living cells bring about.

For test [3], the system named is U-937. As to the kind of experiment: Proliferation test (UptiBlue) on U-937. It is filed as cell-based, human. The note with it: 72 hours, unit inferred. On the procedure:
as §2, §3
(§5) Compound 9 on other cell lines gives the following IC50: • 9 (NH32):3; 9 (Molt-4):3.8; 9 (WTK1): 3; 9 (U-937): 3. • RDM4: lymphoma, mouse AKR • TK6: human lymphoblastoid line • NH32: TK6 variant, not expressing p53 (“p53 knock-out”) • WTK1: other TK6 variant, expressing a p53 mutated gene • MOLT-4: human T lymphoblastic leukemia • U-937: human promonocyte leukemia Proliferation Test for the RDM4 Line with each Compound

In test [4] the test system is NH32. The test is described as follows: Proliferation test (UptiBlue) on NH32. The note with it: 72 hours, unit inferred. In kind it is cell-based, human. As for the experimental part: The influence of the p53 protein upon the effects induced by the products was determined by using the human lymphoblastoid line TK6 (p53 wild-type) and its NH32 variant of which the p53 gene was totally inactivated by double homologous recombination (Chuang et al, 1999). The TK6 cells originate from the American Tissue Culture Collection (ATGC, Manassas, Va., USA). The NH32 cells were supplied by H. L. Liber (Chuang et al, 1999).
as §2
(§6) This test uses the UptiBlue reagent (Interchim, Montluçon, France), metabolised by the living cells. The cells are incubated on plates with 96 wells with 10^4 cells/well (200 μL) with the product and cultivated for 72 hours. Then, 20 μL UptiBlue are added to each well. After 3 hours incubation, the fluorescence of the samples contained in the plates is measured at 590 nm (excitation at 560 nm), using a Fluorolite 1000 microplate reader (Dynex technologies, Issy-Les-Moulineaux, France). […]

Test [5] concerns A172 glioblastoma cells. The test is described as follows: Nucleus morphology and caspase 3 activation in A172 cells. The note with it: for nuclear condensation and fragmentation: 48 hrs treatment. It is filed as cell-based, human.
Description: FIG. 2: A—The A172 cells were cultivated on glass slides. […] The cells were then fixed in 4% paraformaldehyde, permeabilised with 0.1% NP40 and marked with Hoechst dye (blue) and the anti-p20 antibody (active fragment of caspase 3, in red). The cells were then observed under the fluorescence microscope. B—Graphic representation of the number of cells with an apoptotic, fragmented or condensed nucleus. The bars are an average of two slides from one experiment representative of 3 carried out. C—In parallel, proteic extracts were prepared from cells treated with various drugs (cisplatinum 15 μM; CDR225 μM; CDR615 μM; CDR915 μM) and following denaturation the extracts were deposited on a !0% SDS-Page gel. After migration, the proteins were transferred onto nitrocellulose (Biorad, 0.2 μm) and the p20 fragment of the caspase 3 was detected by Western blot with an anti-p20 antibody (1/1000, R&D System).
as §4

For test [6], the system named is RDM4. The test is described as follows: Apoptosis by marking with Annexin-V on RDM4. It is filed as cell-based, mouse. As for the experimental part: Cell death is measured by a first specific marking of the apoptosis. The externalisation of the anionic phospholipids, normally located on the inner layer of the plasmic membrane, is one of the precocious markers of apoptosis (Martin et al, 1996). Annexin-V is a protein which fixes specifically onto the phosphatidylserines in the presence of calcium. When Annexin-V is coupled to a fluorochrome, it makes it possible to quantify the apoptotic cells by flux cytometry.
The control cells are treated with the equivalent volume of solvent (ethanol). […] After 72 hrs, the apoptosis rate is still as low as that of the control cells. On the other hand, with treatment at 45 μM, this rate already reaches 70% at 24 hrs and exceeds 99% after 48 hrs—a sign of significant apoptosis induction.

Test [7] concerns RDM4. The test is described as follows: DNA fragmentation by marking with propidium iodure on RDM4. It is filed as cell-based, mouse. The text has this: A second specific marking of apoptosis is the fragmentation of DNA between the nucleosomes. The fragmented DNA is located in the apoptotic bodies in the terminal phase of apoptosis. This DNA is hypodiploid and so less in quantity than that present in normal cells. It can be quantified by flux cytometry after permeabilisation of the cell membranes and marking with PI. The quantity of DNA in a normal cell is 2n in the G0/G1 phase and 4n in the G2 phase. Therefore, the sub-G0 DNA in a quantity of less than 2n has a weaker fluorescence intensity.
This phenomenon tends to diminish after 48 hrs of treatment. On the other hand, when the cells are treated with 45 μM, the formation of hypodiploid particles, visualised by the sub-G0 DNA content, is less than 10% at 24 hrs and exceeds 50% at 48 hrs such as to reach 60% at 72 hrs. […] The quantity of hypodiploid particles in the control cells remains less than 4% over this same period.

Test [8] has as its system WTK1. As to the kind of experiment: Proliferation test (UptiBlue) on WTK1. It is filed as cell-based, human. The note with it: 72 hours, unit inferred. On the procedure:
as §2, §3, §5

In test [9] the test system is MOLT-4. As to the kind of experiment: Proliferation test (UptiBlue) on MOLT-4. In kind it is cell-based, human. The note with it: 72 hours, UptiBlue; unit inferred; read-out: IC50 (Molt-4). As for the experimental part:
as §1, §2, §6

For the molecule `CC#N.CC#N.CN(C)Cc1cccc[c]1[Ru+].F[P-](F)(F)(F)(F)F.c1ccc(-c2ccccn2)nc1` [Compound 13, [Ru-2-(CH2NMe2)—C6H4-(bipy) (NCMe)2]PF6], the IC50 – broadly, the midpoint of a concentration-inhibition curve – in test [1] amounted to 11 µM.

Take `CC#N.CC#N.CC#N.CP(C)c1ccccc1.F[P-](F)(F)(F)(F)F.[Ru+][c]1ccccc1-c1ccccn1` [Compound 9, [Ru (C6H4-2-C5H4N) (PMe2Ph) (NCMe)3]PF6]: the “reduction of the number of tumoral cells (MTT)” value in test [2] is recorded as “at a concentration similar to or lower than that of cisplatinum”. Moreover, the IC50 in test [3] is 3 µM; in test [1], 12 µM; in test [4], 3 µM; in test [8], 3 µM; in test [9] it was 3.8 µM. For the same molecule, the “nuclear condensation and fragmentation” value in [5] was “induce nuclear condensation and fragmentation characteristic of apoptosis”. Moreover, the “proteic levels of the active fragment of caspase 3 (Western blot)” value in test [5] (cisplatinum 15 μM, CDR6 15 μM, CDR9 15 μM) is reported as “increasing the proteic levels of the active fragment of caspase 3”. Moreover, the “apoptosis rate (Annexin-V)” value in [6] (15 μM, up to 72 hrs) is “does not shown any effect”; in test [6] (45 μM, 24 hrs), 70%. Besides, the “cell cycle distribution (propidium iodure)” value in test [7] (15 μM, first two days) is listed as “accumulation in the G0/G1 phase”. For the same molecule, the “hypodiploid particles (sub-G0 DNA content)” value in test [7] (45 μM, 72 hrs) is given as 60%.

With `CC#N.CC#N.Cc1ccnc(-c2cc(C)ccn2)c1.F[P-](F)(F)(F)(F)F.[Ru+][c]1ccccc1-c1ccccn1` [Compound 12, [Ru(C6H4-2-C5H4N)(4,4′-dimethyl-2,2′-bipyridine)(NCMe)2]PF6], in [2], the “reduction of the number of tumoral cells (MTT)” value is recorded as “at a concentration similar to or lower than that of cisplatinum”. Moreover, the IC50 in test [1] worked out at 9 µM. Moreover, the “nuclear condensation and fragmentation” value in [5] was “induce nuclear condensation and fragmentation characteristic of apoptosis”.
